Measured values published in patent publication US9751853B2, “Solid forms of 3-(5-amino-2-methyl-4-oxo-4H-quinazolin-3-yl)-piperidine-2,6-dione, and their pharmaceutical compositions and uses” (Celgene Corporation, priority 2011, dated 2017).
Entries after “also recorded” stand apart in the source; their conditions may differ. Read-outs that look alike come from different tables or passages of the source.

Assays:
[1] = Approximate solubility in test solvents (visual/gravimetric); type: physicochemical; settings: thermodynamic from solid
Experimental: Solubility: A weighed sample of Compound A hydrochloride (about 50 mg) was treated with a known volume of a test solvent. The solvents used were either reagent or HPLC grade. The resulting mixture was agitated for at least 24 hours at about 25° C. If all of the solids appeared to be dissolved by visual inspection, the estimated solubilities were calculated based on the total volume of solvent used to give a complete solution. The actual solubilities may be greater than those calculated due to the use of large amount of solvent or to a slow rate of dissolution. If solids were present, the solubility was measured gravimetrically. A known volume of filtrate was evaporated to dryness and the weight of the residue was measured.

[2] = Evaporation experiments, solid form by XRPD; type: physicochemical
Experimental: (§1) Equilibration/Slurry and Evaporation: Equilibration and evaporation experiments were carried out by adding an excess of Compound A hydrochloride to about 2 mL of a test solvent. The resulting mixture was agitated for at least 24 hrs at about 25° C. or about 50° C. Upon reaching equilibrium, the saturated solution was removed and allowed to evaporate slowly in an open vial under nitrogen at about 25° C. and about 50° C., respectively. The solids resulting from the equilibration were filtered and dried in the air.
(§2) X-ray Powder Diffraction (XRPD): XRPD analysis was conducted on a Thermo ARL X'TRA™ X-ray powder diffractometer using Cu Kα radiation at 1.54 Å. The instrument was equipped with a fine focus X-ray tube. The voltage and amperage of X-ray generator were set at 45 kV and 40 mA, respectively. The divergence slices were set at 4 mm and 2 mm and the measuring slices were set at 0.5 mm and 0.2 mm. Diffracted radiation was detected by a peltier-cooled Si(Li) solid-state detector. A theta-two theta continuous scan at 2.40°/min (0.5 sec/0.02° step) from 1.5°2θ to 40°2θ was used. A sintered alumina standard was used to check the peak position. In general, positions of XRPD peaks are expected to individually vary on a measurement-by-measurement basis by about +0.2°2θ. In general, as understood in the art, two XRPD patterns match one another if the characteristic peaks of the first pattern are located at approximately the same positions as the characteristic peaks of the second pattern. As understood in the art, determining whether two XRPD patterns match or whether individual peaks in two XRPD patterns match may require consideration of individual variables and parameters such as, but not limited to, preferred orientation, phase impurities, degree of crystallinity, particle size, variation in diffractometer instrument setup, variation in XRPD data collection parameters, and/or variation in XRPD data processing, among others. The determination of whether two patterns match may be performed by eye and/or by computer analysis.

[3] = Solvent/anti-solvent recrystallization, solid form by XRPD; type: physicochemical; settings: MeCN/H2O, ratio 1:5
Experimental: Solvent/Anti-Solvent Recrystallization: The selected solvent (MeCN/water) was saturated with Compound A hydrochloride at room temperature. Once the solids were completely dissolved, an anti-solvent (acetone or IPA) was added into the solution. The mixture was stirred at room temperature overnight. If no precipitation occurred, the vial was further cooled by placing into a refrigerator (about 0-5° C.). The solids resulting from the recrystallization were filtered and air-dried.
X-ray Powder Diffraction (XRPD): XRPD analysis was conducted on a Thermo ARL X'TRA™ X-ray powder diffractometer using Cu Kα radiation at 1.54 Å. The instrument was equipped with a fine focus X-ray tube. The voltage and amperage of X-ray generator were set at 45 kV and 40 mA, respectively. The divergence slices were set at 4 mm and 2 mm and the measuring slices were set at 0.5 mm and 0.2 mm. Diffracted radiation was detected by a peltier-cooled Si(Li) solid-state detector. A theta-two theta continuous scan at 2.40°/min (0.5 sec/0.02° step) from 1.5°2θ to 40°2θ was used. A sintered alumina standard was used to check the peak position. In general, positions of XRPD peaks are expected to individually vary on a measurement-by-measurement basis by about +0.2°2θ. […]

[4] = Equilibration/slurry experiments, solid form by XRPD; type: physicochemical
Experimental: as §1, §2

Solubility by HPLC = type: physicochemical; settings: thermodynamic from solid, room temperature
Experimental: Solubility by HPLC: Solubility of Form A in selected aqueous and organic solvents was determined by mixing solid with solvents at room temperature. The samples were filtered after 24 hr of agitation and quantified by an HPLC method, except for DMSO, for which the solubility was measured after 1 hr of agitation.

[5] = Chemical stability upon storage

Cc1nc2cccc(N)c2c(=O)n1C1CCC(=O)NC1=O.Cl (stereo not shown) [Form A1, 3-(5-amino-2-methyl-4-oxo-4H-quinazolin-3-yl)-piperidine-2,6-dione hydrochloride]
solubility ([1]; aqueous with cosolvent or surfactant or cyclodextrin, EtOH/water (1:1), about 25° C., read-out: approximate solubility): 3000 to 10000 µg/mL | solubility ([1]; aqueous with cosolvent or surfactant or cyclodextrin, MeCN/water (1:1), about 25° C., read-out: approximate solubility): > 25000 µg/mL | solubility ([1]; aqueous with cosolvent or surfactant or cyclodextrin, THF/water (1:1), about 25° C., read-out: approximate solubility): > 25000 µg/mL | solubility ([1]; aqueous with cosolvent or surfactant or cyclodextrin, acetonitrile:water, solvent system for scaleup, read-out: solubility): > 50000 µg/mL | solubility ([1]; organic solvent or mixture, CH2Cl2, about 25° C., read-out: approximate solubility): 3000 to 10000 µg/mL | solubility ([1]; organic solvent or mixture, MeOH, about 25° C., read-out: approximate solubility): 3000 to 10000 µg/mL | solubility ([1]; organic solvent or mixture, THF, about 25° C., read-out: approximate solubility): 3000 to 10000 µg/mL | solubility ([1]; organic solvent or mixture, other organic solvents tested, about 25° C., read-out: approximate solubility): < 3000 µg/mL | solubility ([1]; water, about 25° C., read-out: approximate solubility): 3000 to 10000 µg/mL | XRPD Result after evaporation ([2]; evaporation at 50° C., Acetonitrile/Water (1:1)): Form A1 | XRPD Result after evaporation ([2]; evaporation at 50° C., Ethanol/Water (1:1)): Form A1 | XRPD Result after evaporation ([2]; evaporation at 50° C., Methanol): Form A1 | XRPD Result after evaporation ([2]; evaporation at 50° C., Tetrahydrofuran/Water (1:1), hydrochloride): Amorphous | XRPD Result after evaporation ([2]; evaporation at 50° C., Water): Form A1 | XRPD Result after evaporation ([2]; evaporation at room temperature, Acetonitrile/Water (1:1)): Form A1 | XRPD Result after evaporation ([2]; evaporation at room temperature, Ethanol/Water (1:1)): Form A1 | XRPD Result after evaporation ([2]; evaporation at room temperature, Methanol, hydrochloride): Partial or complete salt dissociation; also recorded: Form A + Form A1 | XRPD Result after evaporation ([2]; evaporation at room temperature, THF): Partial or complete salt dissociation | XRPD Result after evaporation ([2]; evaporation at room temperature, Tetrahydrofuran/Water (1:1), hydrochloride): Partial or complete salt dissociation; also recorded: Form A + Form A1 | XRPD Result after evaporation ([2]; evaporation at room temperature, Water): Form A1 | XRPD Result after recrystallization ([3]; antisolvent Acetone): Form A1 | XRPD Result after recrystallization ([3]; antisolvent IPA, hydrochloride): partial salt dissociation; also recorded: Form Al + Form A | XRPD Result after equilibration ([4]; slurry at 50° C., 2-Propanol): Form A1 | XRPD Result after equilibration ([4]; slurry at 50° C., Acetone): Form A1 | XRPD Result after equilibration ([4]; slurry at 50° C., Acetonitrile): Form A1 | XRPD Result after equilibration ([4]; slurry at 50° C., Acetonitrile/Water (1:1)): Form A + Form A1 | XRPD Result after equilibration ([4]; slurry at 50° C., Ethanol): Form A1 | XRPD Result after equilibration ([4]; slurry at 50° C., Ethanol/Water (1:1)): Form A + Form A1 | XRPD Result after equilibration ([4]; slurry at 50° C., Ethyl acetate): Form A1 | XRPD Result after equilibration ([4]; slurry at 50° C., Heptane): Form A1 | XRPD Result after equilibration ([4]; slurry at 50° C., Methanol): Form A1 | XRPD Result after equilibration ([4]; slurry at 50° C., Methyl ethyl ketone): Form A1 | XRPD Result after equilibration ([4]; slurry at 50° C., Tetrahydrofuran): Form A1 | XRPD Result after equilibration ([4]; slurry at 50° C., Tetrahydrofuran/Water (1:1)): Form A1 | XRPD Result after equilibration ([4]; slurry at 50° C., Toluene): Form A1 | XRPD Result after equilibration ([4]; slurry at 50° C., Water): Form A + Form A1 | XRPD Result after equilibration ([4]; slurry at 50° C., n-Butanol): Form A1 | XRPD Result after equilibration ([4]; slurry at room temperature, 2-Propanol): Form A1 | XRPD Result after equilibration ([4]; slurry at room temperature, Acetone): Form A1 | XRPD Result after equilibration ([4]; slurry at room temperature, Acetonitrile): Form A1 | XRPD Result after equilibration ([4]; slurry at room temperature, Acetonitrile/Water (1:1)): Form A + Form A1 | XRPD Result after equilibration ([4]; slurry at room temperature, Ethanol): Form A1 | XRPD Result after equilibration ([4]; slurry at room temperature, Ethanol/Water (1:1)): Form A + Form A1 | XRPD Result after equilibration ([4]; slurry at room temperature, Ethyl acetate): Form A1 | XRPD Result after equilibration ([4]; slurry at room temperature, Heptane): Form A1 | XRPD Result after equilibration ([4]; slurry at room temperature, Methanol): Form A1 | XRPD Result after equilibration ([4]; slurry at room temperature, Methyl ethyl ketone): Form A1 | XRPD Result after equilibration ([4]; slurry at room temperature, Methyl t-butyl ether): Form A1 | XRPD Result after equilibration ([4]; slurry at room temperature, Methylene chloride): Form A1 | XRPD Result after equilibration ([4]; slurry at room temperature, Tetrahydrofuran): Form A1 | XRPD Result after equilibration ([4]; slurry at room temperature, Tetrahydrofuran/Water (1:1)): Form A + Form A1 | XRPD Result after equilibration ([4]; slurry at room temperature, Toluene): Form A1 | XRPD Result after equilibration ([4]; slurry at room temperature, Water): Form A + Form A1 | XRPD Result after equilibration ([4]; slurry at room temperature, n-Butanol): Form A1 | solubility at 24 h (Solubility by HPLC; aqueous buffer, Acetate buffer (pH 4.0)): 310 µg/mL | solubility at 24 h (Solubility by HPLC; aqueous buffer, Phosphate buffer (pH 6.8)): 30 µg/mL | solubility at 24 h (Solubility by HPLC; organic solvent or mixture, Acetone): 2550 µg/mL | solubility at 24 h (Solubility by HPLC; organic solvent or mixture, Acetonitrile (AcCN)): 20 µg/mL | solubility at 1 h (Solubility by HPLC; organic solvent or mixture, Dimethyl Sulfoxide (DMSO), 1 hr of agitation): 21900 µg/mL | solubility at 24 h (Solubility by HPLC; organic solvent or mixture, Ethyl acetate (EtOAc)): < 1 µg/mL | solubility at 24 h (Solubility by HPLC; organic solvent or mixture, Heptane): < 1 µg/mL | solubility at 24 h (Solubility by HPLC; organic solvent or mixture, Isopropanol (iPrOH)): 20 µg/mL | solubility at 24 h (Solubility by HPLC; organic solvent or mixture, Methanol (MeOH)): 270 µg/mL | solubility at 24 h (Solubility by HPLC; organic solvent or mixture, Tetrahydrofuran (THF)): < 5 µg/mL | solubility at 24 h (Solubility by HPLC; organic solvent or mixture, Toluene): < 5 µg/mL | solubility at 24 h (Solubility by HPLC; saline or isotonic, 0.9% NaCl): 1900 µg/mL | solubility at 24 h (Solubility by HPLC; simulated gastric fluid, 0.1N HCl): 5340 µg/mL | solubility at 24 h (Solubility by HPLC; Water): 1710 µg/mL | chemical stability upon storage ([5]; 40° C. and 75% relative humidity (RH)): chemically stable | chemical stability upon storage ([5]; 40° C. under a nitrogen atmosphere): chemically stable | chemical stability upon storage ([5]; 40° C. under vacuum): chemically stable | chemical stability upon storage ([5]; 60° C. in a closed container): chemically stable | chemical stability upon storage ([5]; room temperature, exposed to air and light, for 6 weeks): chemically stable
